The results in this text go back to paper PMC9369442, “Synthetic Peucedanocoumarin IV Prevents α-Synuclein Neurotoxicity in an Animal Model of Parkinson’s Disease” (International Journal of Molecular Sciences, 2022).

Data set [1] relates to SH-SY5Y cells with Tet-Off conditional expression of β23. The data set is described as follows: Trypan blue exclusion cell viability assay, Tet-Off β23 expression. It counts as cell-based. To be noted: 1 μM, 24 h. How it is done: Figure 1 Peucedanocoumarin IV (PCiv) inhibits β23 aggregations and cytotoxicity in SH-SY5Y cells. (A) Scheme showing the detailed experimental steps in the organic synthesis of racemic PCiv and racemic PCiii (rac-PCiii, and rac-PCiv). Both PCiii and PCiv used in this study are racemic forms. (B) Trypan blue exclusion cell viability assessment in SH-SY5Y cells with Tet-Off-induced β23 expressions. β23 was expressed for 24 h using the Tet-off system. Further expression of β23 was halted by doxycycline (Dox) treatment with simultaneous treatment of the PCiii, PCiv, or their synthetic intermediate, trans-khellatone (t-khellatone, 1 μM 24 h). Cell viability was assessed 24 h after doxycycline treatment (n = 5 per group). (C) Synthetic PCiv’s protective effect on Tet-Off-expressed β23 toxicity in SH-SY5Y cells compared with peucedanocoumarin III (PCiii) determined by trypan blue exclusion assay. (D) The degradation of β23 monitored by Western blot at 37 h after doxycycline (200 ng/mL) treatment. The representative Western blot image of HA (β23) in SH-SY5Y cells treated with synthetic PCiii, synthetic PCiv (1 μM, 37 h), or DMSO as a vehicle. (E) Quantification of HA (β23) expression in SH-SY5Y cells from the indicated experimental groups in panel D (n = 3 experiments per group). (F) Representative immunofluorescence of steady state HA (β23) expression in SH-SY5Y cells expressing Tet-Off regulatable reporter mCherry and HA-tagged β23. HA-β23 was expressed for 24 h using the Tet-off system. Further expression of β23 was halted by Dox treatment in the presence of PCiii or PCiv (1 μM, 37 h). (G) Quantification of HA (β23) immunofluorescence signal in mCherry positive SH-SY5Y cells in each experimental group (n = 32 cells from three separate experiments per group). The data are expressed as means ± SEMs. * p < 0.05, ** p < 0.01, *** p < 0.001, and **** p < 0.0001, ANOVA test followed by Tukey’s post hoc analysis. Two-way ANOVA was used in panel C.
Human neuroblastoma SH-SY5Y cells (ATCC, Manassas, VA, USA) were grown in complete media containing DMEMs, 10% fetal bovine serum (vol/vol), and antibiotics (penicillin-streptomycin 100 U/mL, Thermo Fisher Scientific, Waltham, MA, USA). The atmospheric condition used to preserve the cells consisted of 5% CO2/95% air at 37 °C and maintained a humidified environment. X-tremeGENE HP transfection reagents (Roche, Basel, Switzerland) were used for transient transfection of DNA constructs (pCMV-tTA, TetP-β23, and pTet-dual2 [5]) following the manufacturer’s instructions.
SH-SY5Y cells were plated in 12-well plates at a density of 0.2 × 10^6 cells per well. Following transient transfection with the indicated constructs and subsequent treatment protocol, the cells were harvested by trypsinization, thereby yielding single-cell suspensions. The cells were washed twice with phosphate-buffered saline (PBS) and resuspended in serum-free DMEM. The resuspended cells were mixed with an equal volume of 0.4% trypan blue (w/v) and incubated for 2 min at room temperature. Live and dead cells were counted using a Countess II Automated Cell Counter (Life Technologies, Carlsbad, CA, USA) for assessing cell viability.

The target in another data set is T1, recombinant α-synuclein (Homo sapiens, UniProt P37840).
T1 construct: made in house; host or cells: Escherichia coli BL21
As to the kind of experiment: In vitro recombinant α-synuclein aggregation, Western blot. The format is biochemical. The settings on record: 100 μM, 37 °C, 3 or 5 days. How it is done:
Figure 2 PCiv prevents α-synuclein aggregation in vitro and in cultured neurons with PFF treatment. (A) Representative Western blots showing the degree of recombinant α-synuclein (αSyn) aggregation in a test tube in the presence or absence of PCiv (100 μM) at the indicated incubation duration (phosphate-buffered saline [PBS], 37 °C for 3 or 5 days). Aggregation of α-synuclein was determined using α-synuclein antibody. (B) Quantification of the relative amount of α-synuclein aggregate in high molecular weight sizes in panel A (n = 3 per group). […] (D) Quantification of pS129-αSyn immunofluorescence signal intensities in MAP2-positive cortical neurons in each experimental group (n = 15 cells from three separate experiments). (E) Cell viability assessment in the indicated experimental groups was monitored by CCK-8 assay (n = 3 per group). The data are expressed as means ± SEMs. * p < 0.05, ** p < 0.01, *** p < 0.001, and **** p < 0.0001, ANOVA test followed by Tukey’s post hoc analysis. […]
(A) Representative Western blots showing the degree of recombinant α-synuclein (αSyn) aggregation in a test tube in the presence or absence of t-Khellatone, PCiii, and PCiv (100 μM) at 0 and 5 days of incubation (phosphate-buffered saline [PBS], 37 °C for 5 days). Aggregation of α-synuclein was determined using α- synuclein antibody. […]
On the technique in general: In western blotting, separated proteins are transferred to a membrane and probed.

Turning to `CC1(C)Oc2ccc3ccc(=O)oc3c2C(O)C1O` (stereo not drawn) [trans-khellatone, reference compound], the “effect on β23-induced cytotoxicity” value in data set [1] is given as “no effect”. In addition, the “aggregation of recombinant α-synuclein into high molecular weight species” value at recombinant α-synuclein is given as “failed to prevent”.
